“Also recorded” adds a separate entry of the source. Like-named read-outs stand apart in the source and are kept apart here.
How the values were obtained:
[1] = biological target: AquaOBP4; assay: Fluorescence competitive binding assay with 1-NPN reporter; design: species or system Ambrostoma quadriimpressum; settings: for binding to AquaOBP4 (1-NPN displacement): first-round screening
From the text: Binding affinity was primarily tested with a panel of 40 A. quadriimpressum habitat-related compounds, most of which are abundantly distributed in elms and A. quadriimpressum. Additionally, one newly identified repellent, cinnamaldehyde, was included[25],[27],[28]. After the molecular model of AquaOBP4 was established, we selected two additional compounds, which also came from elms and A. quadriimpressum, for model validation. All of the compounds were purchased from Sigma-Aldrich (Millipore Sigma, USA) with purities of greater than 95%. The CAS numbers, structures and sources of the tested compounds are listed in Table 2, and detailed information (including content) for each odorant is provided in Table S1.
N-phenyl-1-naphthylamine (1-NPN) was used as a reporter to measure the affinity of the fluorescent 1-NPN ligand to proteins. The fluorescence spectra were recorded using a Fluoromax-4 spectrofluorometer (HORIBA Jobin Yvon, New York, USA) with 2 µM protein in 50 mM ammonium acetate (pH 7.2) at room temperature; the compounds and 1-NPN were dissolved in high-performance liquid chromatography (HPLC)-grade methanol at a concentration of 1 mM. Parameter selection was such that the slit widths for both excitation and emission were 10 nm. The reporter was excited at 337 nm, and the emission spectra were recorded between 380 and 500 nm. The AquaOBP4 saturation curve was tested using 1-NPN at 2 to 14 µM, and the affinities of the compounds were estimated using 2 µM 1-NPN and 10 to 70 µM concentrations of the compounds. The curves were then linearized using Scatchard plots. IC50 and Kd values were analyzed using Prism 6 (GraphPad Software, USA), and Ki values were calculated using the following equation: Ki = [IC50]/1 + [1-NPN]/Kd, where [1-NPN] is the concentration of dissociative 1-NPN and Kd is the dissociation constant of the protein/1-NPN complex. To investigate the response of AquaOBP4 at low pH, the fluorescence binding affinity between AquaOBP4 and one of the best ligands was measured at pH 5. Then, 50 mM ammonium acetate (pH 5) was used as a buffer to dissolve the AquaOBP4 protein.

[2] = test system: antennae of A. quadriimpressum; assay: Electroantennogram (EAG) responses of binding odorants; assay type: in vivo, Ambrostoma quadriimpressum; settings: 0.1, 1 and 10 µg/µl in paraffin oil; normalized to negative control
[3] = test system: A. quadriimpressum adults; assay: Y-tube olfactometer behavioral test; assay type: in vivo, Ambrostoma quadriimpressum; settings: 10 µg/µl in paraffin oil (methods), 1 µg/µl; vs paraffin oil control; N = 90
Description: The responses of A. quadriimpressum to the three best ligands were assessed in a Y-tube olfactometer. The compounds were tested at an intermediate concentration of 10 µg/µl in paraffin oil. In these assays, 20 μl of the odorant was applied to a piece of filter paper (25 × 25 mm), which was then placed in one of the olfactometer arms. In the other arm, 20 μl of paraffin oil was used as a negative control. Thirty beetles (15 males and 15 females) were individually tested, with three replicates for each individual (for a total of 90 replicates). A red light source was used in the darkroom to avoid light interference. For the Y-tube (1-cm diameter, 100-cm base length, 10-cm arm length), one small hole was cut into the base of the Y-tube at 10 cm for releasing beetles. The source of the air that passed through the Y-tube was a pressurized tank of pure air. The air was first filtered through active carbon and then humidified by bubbling it through a bottle filled with double-distilled (dd) water before entering the Y-tube. The air flow traveled through both arms of the Y-tube olfactometer at a speed of 300 ml/min. Each individual beetle was placed at the entrance of the olfactometer (Fig. 1), and their “choice” was recorded when the beetle entered an arm and remained there for 30 s. If an insect made no choice within 3 min, the result was recorded as “no-choice”. […]

[4] = test system: antennae of A. quadriimpressum; design: method as in previous results of the authors; settings: ref previous results of the authors; cited from earlier work
[5] = test system: A. quadriimpressum; design: method as in doi:10.1653/024.099.0212; settings: cited from earlier work
[6] = Table 3, pH 7.2, 2 µM 1-NPN, 2 µM protein, compounds 10 to 70 µM
[7] = Table 3 and text, pH 7.2, 2 µM 1-NPN, calculated from IC50

## CCCCCCCCOC(=O)c1ccccc1C(=O)OCCCC [Butyl octyl phthalate]
[1]; Figure 6 legend, 1-NPN 2 μM
  Ki: 12.7 µM
[1]; Table 4
  pKi: 4.90
[1]; Table 4, pH 7.2, 2 µM 1-NPN
  IC50: 23.9 µM
  Ki: 12.7 µM
[1]; pH 5
  Ki: 16.8 µM
[2]
  EAG response: strong EAG responses

## CC(C)COC(=O)c1ccccc1C(=O)OCC(C)C [Diisobutyl phthalate]
[1]; [6]
  IC50: 50.4 µM
[1]; [7]
  Ki: 26.8 µM
[1]; Table 4
  pKi: 4.57
[1]; Table 4, pH 7.2, 2 µM 1-NPN
  IC50: 50.4 µM
  Ki: 26.8 µM
[2]
  EAG response: strong EAG responses

## CC/C=C\CCOC(=O)c1ccccc1 [cis-3-Hexenyl benzoate]
[1]; [6]
  IC50: 65.8 µM
[1]; [7]
  Ki: 35 µM
[1]; Table 4
  pKi: 4.46
[1]; Table 4, pH 7.2, 2 µM 1-NPN
  IC50: 65.8 µM

## CC/C=C\CCOC(C)=O [Leaf acetate]
[1]; pH 7.2
  binding to AquaOBP4 (1-NPN displacement): no binding

## CCCCOC(=O)c1ccccc1C(=O)OCCCC [Dibutyl phthalate]
[1]; [6]
  IC50: 45.6 µM
[1]; [7]
  Ki: 24.2 µM
[1]; Table 4
  pKi: 4.62
[1]; Table 4, pH 7.2, 2 µM 1-NPN
  IC50: 45.6 µM
[2]
  EAG response: strong EAG responses
[3]
  attraction of A. quadriimpressum adults in Y-tube olfactometer: slightly higher attractiveness

## COC(=O)c1ccccc1O [Methyl salicylate]
[1]; pH 7.2
  binding to AquaOBP4 (1-NPN displacement): did not bind

## COC(=O)c1ccccc1 [Methyl benzoate]
[1]; pH 7.2
  binding to AquaOBP4 (1-NPN displacement): did not bind; also recorded: no binding

## CC(=O)/C=C/C1=C(C)CCCC1(C)C [β-Ionone]
[1]; [6]
  IC50: 56.6 µM
[1]; [7]
  Ki: 30.1 µM
[1]; Table 4
  pKi: 4.52
[1]; Table 4, pH 7.2, 2 µM 1-NPN
  IC50: 56.6 µM

## c1ccc(Nc2cccc3ccccc23)cc1 [1-NPN, N-phenyl-1-naphthylamine, reference compound]
[1]; pH 5
  Kd: 1.49 ± 0.08 µM
[1]; pH 7.2, 2 µM protein, 1-NPN 2 to 14 µM
  Kd: 2.27 ± 0.16 µM

## Isoeugenol
[1]; Table 4
  pKi: 3.77
[1]; Table 4, pH 7.2, 2 µM 1-NPN
  IC50: 321 µM
  Ki: 171 µM

## O=C/C=C/c1ccccc1 [Cinnamaldehyde]
[1]; [6]
  IC50: 149 µM
[1]; [7]
  Ki: 79.3 µM
[1]; Table 4
  pKi: 4.10
[1]; Table 4, pH 7.2, 2 µM 1-NPN
  IC50: 149 µM
  Ki: 79.3 µM
[4]
  physiological response on the antennae of A. quadriimpressum: strong physiological response
[5]
  repellent / antifeedant effect against A. quadriimpressum: strong repellent
[5]; listed as cinnamaldehyde
  repellent / antifeedant effect against A. quadriimpressum: antifeedant

## CC(=O)Oc1ccccc1 [Acetic acid, Phenyl ester]
[1]; pH 7.2
  binding to AquaOBP4 (1-NPN displacement): did not bind

— PMC5684361, “Selectivity and ligand-based molecular modeling of an odorant-binding protein from the leaf beetle Ambrostoma quadriimpressum (Coleoptera: Chrysomelidae) in relation to habitat-related volatiles” (Scientific Reports, 2017)
